Source: patent US9504752B2, “Sterilizer, oral cavity sterilizer, sterilization method, sterilization apparatus, and sterilizer evaluation method” (AZ CO., LTD., priority 2011, dated 2016)

Tested on: Streptococcus aureus
Assay: Sterilization effect of hydrogen peroxide photolysis (laser 400±20 nm) with catalase activity inhibitor, viable count on BHI agar
Format: cell-based
Conditions: only hydrogen peroxide, no laser, no scutellaria, H(+)L(−)O(−); FIG. 4
Experimental: An experiment for examining an effect of the catalase activity inhibitor of enhancing a sterilization effect was conducted. In the experiment, […] which is a catalase-positive bacterium was used as a target of the sterilization. A bacterium suspension having a concentration of 10^7 cells/mL was prepared by using the bacterium and saline, and the suspension was used for the experiment. A semiconductor laser (product name: […] Experiment samples were prepared by using scutellaria as the catalase activity inhibitor, diluting the scutellaria with ultrapure water, followed by sterilization by filtration through a 0.22 μm filter, and then adding the scutellaria solution to the mixture liquids of bacterium suspension and hydrogen peroxide to attain final scutellaria concentrations of 0, 1, and 3 mg/mL. [table] The laser irradiation was performed immediately after preparing the experiment samples, and 50 μL of the sample after the irradiation and 50 μL of 5000 U/mL catalase were mixed to stop the reaction of hydrogen peroxide. After that, a 10-fold dilution series was prepared and was seeded on a BHI agar culture medium, followed by culturing under an aerophilic condition of 37° C. for 24 hours, and then evaluation of the sterilization effect was conducted. […]

## OO [hydrogen peroxide]
  sterilization effect: no sterilization effect
